According to patent US20260159497A1, “SOLID FORMS OF A COMPLEMENT FACTOR B INHIBITOR” (Novartis Pharma AG, priority 2022, published 2026):
Converted amounts (≈) assume the structure as drawn. Where two headings read alike, the source gives them in different places.

Legend:
[1] = Dynamic vapor sorption (DVS) mass change; format: physicochemical; conditions: for Mass change by DVS, Desorption (%) / Mass change by DVS, Sorption (%): Table 5, 25 degree C., based on dry weight
Text: [table] The mass change by DVS isotherm (2 cycles 40-0-95-0-40% RH) are in the tables below. The mass change is based on the dry weight of each.

[2] = Solubility in water and biorelevant buffers at 25° C.; format: physicochemical; conditions: 25° C., 24 h; for solubility at 24 h: thermodynamic from solid, read-out: Solubility (mg/mL) S
Procedure: Purchase sodium taurocholate (NaTC) from supplier. Account for assay. Add amount corresponding to 3 mM to PBS V1. Stir until dissolved. Equilibrate 1 h at 25° C. or 37° C. before use. Dispose after 48 h.
Purchase FaSSIF-V2 from supplier (biorelevant.com). Amount added to PBS-V1 according to Table 1. Stir until dissolved. Equilibrate 1 h at 25° C. or 37° C. before use. Dispose after 48 h.
Purchase FeSSIF-V2 from supplier (biorelevant.com). Amount added to PBS-V1 according to Table 1. Stir until dissolved. Equilibrate 1 h at 25° C. or 37° C. before use. Dispose after 48 h.

[3] = Stability of Forms A and B under stress conditions (temperature/humidity, capsules, light)
[4] = Compression stability (XRPD after compression); format: physicochemical; conditions: 4 tons of compression for 5 min
Text: Method: […] Afterwards, characterize the sample by XRPD to detect any change in the solid state.

[5] = Intrinsic dissolution rate; format: physicochemical
[6] = Water content by Karl Fischer titration; format: physicochemical; conditions: ambient conditions; relative to total weight of the salt / free form
[7] = Solubility in Simulated Fluids at 37° C.; format: physicochemical; conditions: for solubility at 30 min / solubility at 24 h: 37 °C, thermodynamic from solid; for solubility at 30 min: read-out: Solubility (mg/mL) 30 min; for solubility at 24 h: read-out: Solubility (mg/mL) 24 h
Text: Solubility data of Form A (S)-4-(2,2-difluoro-7-((5-methoxy-7-methyl-1H-indol-4-yl)methyl)-7-azaspiro[3.5]nonan-6-yl)benzoic acid, Form B (S)-4-(2,2-difluoro-7-((5-methoxy-7-methyl-1H-indol-4-yl)methyl)-7-azaspiro[3.5]nonan-6-yl)benzoic acid p-toluene sulfonic acid salt, Form C (S)-4-(2,2-difluoro-7-((5-methoxy-7-methyl-1H-indol-4-yl)methyl)-7-azaspiro[3.5]nonan-6-yl)benzoic acid p-toluene sulfonic acid salt, and Form D (S)-4-(2,2-difluoro-7-((5-methoxy-7-methyl-1H-indol-4-yl)methyl)-7-azaspiro[3.5]nonan-6-yl)benzoic acid hydrochloride salt in Simulated Fluids at 37° C.

[8] = Grinding and wet granulation; format: physicochemical
Text: Method: Granulate was obtained in solid-state forms. […] Dry the wet-cake under vacuum or at atmospheric pressure. Evaluate solid form and degree of crystallinity by e.g. XRPD and/or DSC.

[9] = pH 2.0, 0.01 M HCl, 37° C., 100 rpm, 120 min
[10] = pH 6.5, phosphate buffer 50 mM (PBS-V1), 37° C., 100 rpm, 120 min

COc1cc(C)c2[nH]ccc2c1CN1CCC2(C[C@H]1c1ccc(C(=O)O)cc1)CC(F)(F)C2 [Form A, (S)-4-(2,2-difluoro-7-((5-methoxy-7-methyl-1H-indol-4-yl)methyl)-7-azaspiro[3.5]nonan-6-yl)benzoic acid]
moisture absorbed by DVS (absorbs up to) ([1]; 95% RH at 25° C.): up to 0.45% | Mass change by DVS, Desorption (%) ([1]; 0% RH): −0.01% | Mass change by DVS, Sorption (%) ([1]; 0% RH): 0.00% | Mass change by DVS, Desorption (%) ([1]; 10% RH): 0.06% | Mass change by DVS, Sorption (%) ([1]; 10% RH): 0.04% | Mass change by DVS, Desorption (%) ([1]; 20% RH): 0.12% | Mass change by DVS, Sorption (%) ([1]; 20% RH): 0.08% | Mass change by DVS, Desorption (%) ([1]; 30% RH): 0.17% | Mass change by DVS, Sorption (%) ([1]; 30% RH): 0.13% | Mass change by DVS, Desorption (%) ([1]; 40% RH): 0.22% | Mass change by DVS, Sorption (%) ([1]; 40% RH): 0.17% | Mass change by DVS, Desorption (%) ([1]; 50% RH): 0.26% | Mass change by DVS, Sorption (%) ([1]; 50% RH): 0.22% | Mass change by DVS, Desorption (%) ([1]; 60% RH): 0.32% | Mass change by DVS, Sorption (%) ([1]; 60% RH): 0.26% | Mass change by DVS, Desorption (%) ([1]; 70% RH): 0.35% | Mass change by DVS, Sorption (%) ([1]; 70% RH): 0.30% | Mass change by DVS, Desorption (%) ([1]; 80% RH): 0.38% | Mass change by DVS, Sorption (%) ([1]; 80% RH): 0.35% | Mass change by DVS, Desorption (%) ([1]; 90% RH): 0.42% | Mass change by DVS, Sorption (%) ([1]; 90% RH): 0.40% | Mass change by DVS, Desorption (%) ([1]; 95% RH): 0.45% | Mass change by DVS, Sorption (%) ([1]; 95% RH): 0.45% | pH of solubility sample (pH) ([2]; FaSSGF, pH 1.6): 1.68 | pH of solubility sample (pH) ([2]; PBS-V1 + 3 mM NaTC, pH 6.5): 6.51 | pH of solubility sample (pH) ([2]; PBS-V1 + 0.3 FeSSIF-V2, pH 6.5): 6.52 | pH of solubility sample (pH) ([2]; PBS-V1 + 2.0 FeSSIF-V2, pH 6.5): 6.73 | pH of solubility sample (pH) ([2]; PBS-V1 + FaSSIF-V2, pH 6.5): 6.69 | pH of solubility sample (pH) ([2]; PBS-V1 + FeSSIF-V2, pH 6.5): 6.74 | solubility at 24 h ([2]; fassgf or other biorelevant, FaSSGF, pH 1.6): > 2 mg/mL | solubility at 24 h ([2]; fassgf or other biorelevant, PBS-V1 + 3 mM NaTC, pH 6.5): 0.068 mg/mL | solubility at 24 h ([2]; fassgf or other biorelevant, PBS-V1 + 0.3 FeSSIF-V2, pH 6.5): 0.074 mg/mL | solubility at 24 h ([2]; fassgf or other biorelevant, PBS-V1 + 2.0 FeSSIF-V2, pH 6.5): 0.12 mg/mL | solubility at 24 h ([2]; PBS-V1 + FaSSIF-V2, pH 6.5): 0.072 mg/mL | solubility at 24 h ([2]; PBS-V1 + FeSSIF-V2, pH 6.5): 0.094 mg/mL | solubility at 24 h ([2]; water): 0.052 mg/mL (≈ 114 µM) | pH of solubility sample (pH) ([2]; water): 7.40 | stability in HPMC and HGC capsules ([3]; 50° C. with 11% and 75% RH for 2 weeks): chemically and physically stable | degradation under light stress ([3]; 1200 kLux light stress): about 0.9% | form change by XRPD after humidity exposure ([3]; exposed to 80% or 92% RH for 24 hrs): no change | chemical stability in bulk state ([3]; stored at 50° C. with 11% RH or 75% RH for 1 week): chemically stable | discoloration in bulk state ([3]; stored at 80° C. with 11% RH or 75% RH): slight to medium discoloration | polymorphic form in the stress conditions ([3]; temperature/humidity and light stress conditions): unchanged | form change in XRPD after compression [4]: no form change | intrinsic dissolution rate ([5]; PBS-V1 (pH 6.5)): 0.0028 mg/min/cm^2 | intrinsic dissolution rate ([5]; pH 2.0, 0.01 M HCl): 0.081 mg/min/cm^2 | form change after intrinsic dissolution [5, 9]: (No form change) | intrinsic dissolution rate [5, 9]: 0.081 mg · min^−1 · cm^−2 | form change after intrinsic dissolution [5, 10]: (No form change) | intrinsic dissolution rate [5, 10]: 0.0028 mg · min^−1 · cm^−2 | water content by Karl Fischer titration [6]: 0.15 % w/w | solubility at 30 min ([7]; fassgf or other biorelevant, FaSSGF, 30 min): 2.28 mg/mL (≈ 5020 µM) | solubility at 24 h ([7]; fassgf or other biorelevant, FaSSGF, 24 h): > 2 mg/mL | solubility at 30 min ([7]; fassif, FaSSIF, 30 min): 0.24 mg/mL (≈ 528 µM) | solubility at 24 h ([7]; fassif, FaSSIF, 24 h): 0.18 mg/mL (≈ 396 µM) | solubility at 30 min ([7]; fessif, FeSSIF, 30 min): 0.31 mg/mL (≈ 682 µM) | solubility at 24 h ([7]; fessif, FeSSIF, 24 h): 0.31 mg/mL (≈ 682 µM) | solubility at 30 min ([7]; pH 7, water, Water, initial pH 7.00, 30 min): 0.21 mg/mL (≈ 462 µM) | solubility at 24 h ([7]; pH 7, water, Water, initial pH 7.00, 24 h): 0.22 mg/mL (≈ 484 µM) | pH at 24 h ([7]; FaSSGF): 1.61 | pH at 24 h ([7]; FaSSIF): 6.48 | pH at 24 h ([7]; FeSSIF): 5.00 | pH at 24 h ([7]; Water, initial pH 7.00): 7.12 | crystallinity from XRPD pattern after grinding ([8]; after grinding): crystallinity decrease | form change after grinding and wet granulation ([8]; dry grinding (2 min and 5 min) and wet granulation (water and ethanol)): did not lead to any form change
